In patent US8802623B2 (priority 2009, dated 2014):

Legend:
IAV A/PR/8/34 [1] = system: IAV A/PR/8/34; set-up: species or system C57BL/6 mice; details: mouse, in vivo
IAV A/PR/8/34 [2] = system: IAV A/PR/8/34; set-up: species or system C57BL/6 mice; details: mouse, in vivo; remark: listed apart in the source
[3] = mouse, in vivo
IAV A/PR/8/34 [4] = assay type: cell-based, IAV A/PR/8/34 (H1N1)
[5] = system: A549 cells infected with IAV A/PR/8/34; assay type: cell-based, human

Compound	infectious virus loads in lungs (IAV A/PR/8/34 [1])	IAV-induced death in mice (IAV A/PR/8/34 [2])	side effect in uninfected mice (survival, weight) [3]	virus production in IAV-infected A549 cells (IAV A/PR/8/34 [4])	IL-6 release [5]	IL-8 release [5]	RANTES release [5]	infectious virus load in lungs (IAV A/PR/8/34 [1])	protection from IAV induced death, different concentrations (IAV A/PR/8/34 [2])	protection from IAV-induced death at different pfu/mice (IAV A/PR/8/34 [2])
H-Thr-Phe-Leu-Leu-Arg-NH2 [TFLLR-NH2]	significantly increased infectious virus loads	increased IAV-induced death	not sensitive	produced more viruses	significantly increased	significantly increased	significantly increased	–	–	–
CC(C)c1ccc(Cn2ccc3c4c(N)nc(NC5CC5)nc4ccc32)cc1 [SCH79797]	–	–	–	–	–	–	–	significantly decreased infectious virus load	protected mice from IAV induced death in a dose-dependent manner	protected mice from IAV-induced death
